From the NIST ThermoML archive (doi:10.1021/je900437b)

Assay: xn = mol fraction of the nth substance listed
Settings: 101 kPa, Liquid; for speed of sound: Sing-around technique in a fixed-path interferometer; for mass density: Vibrating tube method

CC(C)(N)CO [2-amino-2-methylpropan-1-ol] + NCCO
Settings	mass density [kg/m3]	speed of sound [m/s]
293.15 K, x2 = 0	936.751	1501.4
293.15 K, x2 = 0.141	944.932	1525.9
293.15 K, x2 = 0.2691	953.001	1550.2
293.15 K, x2 = 0.3862	961.121	1574
293.15 K, x2 = 0.4939	969.165	1597.6
293.15 K, x2 = 0.5933	977.051	1621.2
293.15 K, x2 = 0.6869	984.969	1645.1
293.15 K, x2 = 0.7724	992.742	1668.2
293.15 K, x2 = 0.8532	1000.62	1691
293.15 K, x2 = 0.9268	1008.22	1712.6
298.15 K, x2 = 0	932.596	1483.4
298.15 K, x2 = 0.141	940.731	1508.3
298.15 K, x2 = 0.2691	948.799	1533
298.15 K, x2 = 0.3862	956.918	1557.1
298.15 K, x2 = 0.4939	964.959	1580.9
298.15 K, x2 = 0.5933	972.875	1604.7
298.15 K, x2 = 0.6869	980.811	1628.8
298.15 K, x2 = 0.7724	988.58	1652
298.15 K, x2 = 0.8532	996.465	1674.8
298.15 K, x2 = 0.9268	1004.08	1696.5
303.15 K, x2 = 0	928.395	1461.2
303.15 K, x2 = 0.141	936.493	1486.9
303.15 K, x2 = 0.2691	944.603	1512.3
303.15 K, x2 = 0.3862	952.718	1537.1
303.15 K, x2 = 0.4939	960.768	1561.6
303.15 K, x2 = 0.5933	968.682	1585.9
303.15 K, x2 = 0.6869	976.624	1610.5
303.15 K, x2 = 0.7724	984.413	1634.3
303.15 K, x2 = 0.8532	992.305	1657.7
303.15 K, x2 = 0.9268	999.98	1679.9
308.15 K, x2 = 0	924.174	1442.4
308.15 K, x2 = 0.141	932.236	1468.5
308.15 K, x2 = 0.2691	940.355	1494.4
308.15 K, x2 = 0.3862	948.482	1519.5
308.15 K, x2 = 0.4939	956.545	1544.3
308.15 K, x2 = 0.5933	964.465	1569
308.15 K, x2 = 0.6869	972.442	1593.8
308.15 K, x2 = 0.7724	980.259	1617.7
308.15 K, x2 = 0.8532	988.206	1641.2
308.15 K, x2 = 0.9268	995.885	1663.6
313.15 K, x2 = 0	919.945	1423.8
313.15 K, x2 = 0.141	927.969	1450.4
313.15 K, x2 = 0.2691	936.091	1476.5
313.15 K, x2 = 0.3862	944.248	1501.9
313.15 K, x2 = 0.4939	952.319	1527
313.15 K, x2 = 0.5933	960.252	1551.9
313.15 K, x2 = 0.6869	968.25	1576.9
313.15 K, x2 = 0.7724	976.093	1601
313.15 K, x2 = 0.8532	984.066	1624.7
313.15 K, x2 = 0.9268	991.791	1647.3
318.15 K, x2 = 0	915.702	1405.3
318.15 K, x2 = 0.141	923.687	1432.2
318.15 K, x2 = 0.2691	931.816	1458.6
318.15 K, x2 = 0.3862	940.009	1484.3
318.15 K, x2 = 0.4939	948.077	1509.7
318.15 K, x2 = 0.5933	956.017	1534.8
318.15 K, x2 = 0.6869	964.037	1559.9
318.15 K, x2 = 0.7724	971.917	1584.1
318.15 K, x2 = 0.8532	979.896	1608
318.15 K, x2 = 0.9268	987.66	1630.8
323.15 K, x2 = 0	911.431	1386.9
323.15 K, x2 = 0.141	919.381	1414.2
323.15 K, x2 = 0.2691	927.518	1440.8
323.15 K, x2 = 0.3862	935.735	1466.7
323.15 K, x2 = 0.4939	943.814	1492.3
323.15 K, x2 = 0.5933	951.753	1517.7
323.15 K, x2 = 0.6869	959.804	1542.9
323.15 K, x2 = 0.7724	967.721	1567.2
323.15 K, x2 = 0.8532	975.738	1591.3
323.15 K, x2 = 0.9268	983.527	1614.4
